Measured values: patent US20260174083A1, “FUNGICIDAL MIXTURE COMPRISING SUBSTITUTED PYRIDINES” (BASF SE, priority 2022, published 2026)
Like-named read-outs stand apart in the source and are kept apart here.

Legend:
Format in all cases: cell-based
Septoria tritici = experiment: Activity against leaf blotch on wheat caused by Septoria tritici (microtiterplate test)
Pyricularia oryzae = experiment: microbe, parasite or virus in culture; conditions: for Observed efficacy: single active, MTP, 405 nm, 7 days after inoculation
Botrytis cinerea = experiment: Activity against the grey mold Botrytis cinerea in the microtiterplate test
[1] = Zymoseptoria tritici, 168 h, single active, MTP, 405 nm, 7 days after inoculation, read-out: Observed efficacy
[2] = Zymoseptoria tritici, 168 h, single active, 0.016 ppm, MTP, 405 nm, 7 days after inoculation, read-out: Observed efficacy
[3] = Zymoseptoria tritici, 168 h, single active, 0.063 ppm, MTP, 405 nm, 7 days after inoculation, read-out: Observed efficacy
[4] = Zymoseptoria tritici, 168 h, single active, 0.25 ppm, MTP, 405 nm, 7 days after inoculation, read-out: Observed efficacy
[5] = Pyricularia oryzae, 168 h, read-out: Observed efficacy
[6] = Botrytis cinerea, 168 h, single active, MTP, 405 nm, 7 days after inoculation, read-out: Observed efficacy
[7] = Botrytis cinerea, 168 h, single active, 1 ppm, MTP, 405 nm, 7 days after inoculation, read-out: Observed efficacy
[8] = single active, 0.063 ppm, MTP, 405 nm, 7 days after inoculation
[9] = Botrytis cinerea, 168 h, single active, 4 ppm, MTP, 405 nm, 7 days after inoculation, read-out: Observed efficacy

Q: How did the Observed efficacy (Septoria tritici; single active, 0.016 ppm, MTP, 405 nm, 7 days after inoculation) turn out when `CO/C=C(/C(=O)OC)c1ccccc1Oc1cc(Oc2ccccc2C#N)ncn1` [Azoxystrobin, azoxystrobin, reference compound] was run?
A: The Observed efficacy was 0%.

Q: `O=C(Nc1ccccc1-c1ccc(Cl)cc1)c1cccnc1Cl` [Boscalid, boscalid, reference compound] was tested. Which inhibition of growth at 1 ppm (Septoria tritici; [1]) did it give?
A: Its inhibition of growth at 1 ppm is 54%.

Q: Which inhibition of growth at 0.016 ppm (Septoria tritici; [2]) does the source give for `Cc1cc(C2=N[C@@H](C)[C@H](C)Oc3ccccc32)cnc1C(F)F` [Compound 1-1] here?
A: Its inhibition of growth at 0.016 ppm is 0%.

Q: And the inhibition of growth at 0.063 ppm (Septoria tritici; [3])?
A: Its inhibition of growth at 0.063 ppm is 0%.

Q: And the inhibition of growth at 0.25 ppm (Septoria tritici; [4])?
A: Its inhibition of growth at 0.25 ppm is 26%.

Q: What about the inhibition of growth at 0.25 ppm (Pyricularia oryzae; [5]) of the same compound?
A: Its inhibition of growth at 0.25 ppm is 7%.

Q: What about the inhibition of growth at 0.25 ppm (Botrytis cinerea; [6]) of the same compound?
A: The inhibition of growth at 0.25 ppm was 7%.

Q: For `Cc1cc(C2=N[C@@H](C)C(C)(C)Oc3c(F)cccc32)cnc1C(F)F` [Compound 1-2], which inhibition of growth at 0.016 ppm (Septoria tritici; [2]) is on record?
A: The inhibition of growth at 0.016 ppm was 0%.

Q: What about the inhibition of growth at 0.063 ppm (Septoria tritici; [3]) of the same compound?
A: Its inhibition of growth at 0.063 ppm is 0%.

Q: What about the inhibition of growth at 0.25 ppm (Septoria tritici; [4]) of the same compound?
A: The inhibition of growth at 0.25 ppm was 13%.

Q: And the inhibition of growth at 0.063 ppm (Pyricularia oryzae; [5])?
A: The inhibition of growth at 0.063 ppm was 11%.

Q: What about the inhibition of growth at 0.25 ppm (Pyricularia oryzae; [5]) of the same compound?
A: Its inhibition of growth at 0.25 ppm is 11%.

Q: What about the inhibition of growth at 1 ppm (Pyricularia oryzae; [5]) of the same compound?
A: Its inhibition of growth at 1 ppm is 35%.

Q: And the inhibition of growth at 0.063 ppm (Botrytis cinerea; Botrytis cinerea, 168 h, single active, 0.063 ppm, MTP, 405 nm, 7 days after inoculation, read-out: Observed efficacy)?
A: The inhibition of growth at 0.063 ppm was 11%.

Q: And the inhibition of growth at 0.25 ppm (Botrytis cinerea; [6])?
A: The inhibition of growth at 0.25 ppm was 11%.

Q: And the inhibition of growth at 1 ppm (Botrytis cinerea; [7])?
A: Its inhibition of growth at 1 ppm is 35%.

Q: For `Cc1cc(C2=NC(C)C(C)(C)Oc3c(F)cccc32)cnc1C(F)F` (stereo not drawn) [Compound 1-3], which inhibition of growth at 1 ppm (Pyricularia oryzae; [5]) is on record?
A: The inhibition of growth at 1 ppm was 19%.

Q: What about the inhibition of growth at 1 ppm (Botrytis cinerea; [7]) of the same compound?
A: The inhibition of growth at 1 ppm was 9%.

Q: `Cc1cc(C2=N[C@@H](C)C(C)(C)Oc3ccccc32)cnc1C(F)F` [Compound 1-4] was tested. Which inhibition of growth at 1 ppm (Pyricularia oryzae; [5]) did it give?
A: Its inhibition of growth at 1 ppm is 17%.

Q: What about the inhibition of growth at 1 ppm (Botrytis cinerea; [7]) of the same compound?
A: Its inhibition of growth at 1 ppm is 17%.

Q: How did the inhibition of growth at 0.016 ppm (Septoria tritici; [2]) turn out when `Cc1cc(C2=N[C@H](C)C(C)(C)Oc3ccccc32)cnc1C(F)F` [Compound 1-5] was run?
A: Its inhibition of growth at 0.016 ppm is 0%.

Q: What about the inhibition of growth at 0.063 ppm (Septoria tritici; [3]) of the same compound?
A: Its inhibition of growth at 0.063 ppm is 3%.

Q: What about the inhibition of growth at 0.25 ppm (Septoria tritici; [4]) of the same compound?
A: Its inhibition of growth at 0.25 ppm is 1%.

Q: `Cc1cc(C2=NC3(CC3)COc3c(F)cccc32)cnc1C(F)F` [Compound 1-6] was tested. Which inhibition of growth at 0.25 ppm (Septoria tritici; [4]) did it give?
A: Its inhibition of growth at 0.25 ppm is 0%.

Q: And the inhibition of growth at 1 ppm (Septoria tritici; [1])?
A: Its inhibition of growth at 1 ppm is 3%.

Q: What about the inhibition of growth at 0.25 ppm (Pyricularia oryzae; [5]) of the same compound?
A: The inhibition of growth at 0.25 ppm was 5%.

Q: And the inhibition of growth at 1 ppm (Pyricularia oryzae; [5])?
A: Its inhibition of growth at 1 ppm is 14%.

Q: And the inhibition of growth at 0.25 ppm (Botrytis cinerea; [6])?
A: The inhibition of growth at 0.25 ppm was 5%.

Q: And the inhibition of growth at 1 ppm (Botrytis cinerea; [7])?
A: Its inhibition of growth at 1 ppm is 14%.

Q: What does the source list for `Cc1cc(C2=NCC(C)(C)Oc3c(F)cccc32)cnc1C(F)F` [Compound 1-7]?
A: inhibition of growth at 0.016 ppm (Septoria tritici; [2]): 12%; inhibition of growth at 0.25 ppm (Pyricularia oryzae; [5]): 0%; inhibition of growth at 0.25 ppm (Botrytis cinerea; [6]): 0%

Q: Which inhibition of growth at 0.25 ppm (Pyricularia oryzae; [5]) does the source give for `CC1COC(Cn2cncn2)(c2ccc(Oc3ccc(Cl)cc3)cc2Cl)O1` (stereo not drawn) [Difenoconazol, difenoconazole, reference compound] here?
A: Its inhibition of growth at 0.25 ppm is 26%.

Q: What about the inhibition of growth at 0.25 ppm (Botrytis cinerea; [6]) of the same compound?
A: Its inhibition of growth at 0.25 ppm is 26%.

Q: Which Observed efficacy (Pyricularia oryzae; 1 ppm) does the source give for `CNC(=O)/C(=N/OC)c1ccccc1COc1cc(C)ccc1C` [Dimoxystrobin, dimoxystrobin, reference compound] here?
A: The Observed efficacy was 16%.

Q: And the Observed efficacy (Botrytis cinerea; single active, 1 ppm, MTP, 405 nm, 7 days after inoculation)?
A: The Observed efficacy was 16%.

Q: With `N#Cc1c[nH]cc1-c1cccc2c1OC(F)(F)O2` [Fludioxonil, fludioxonil, reference compound] as the compound, how does the inhibition of growth at 0.25 ppm (Septoria tritici; Zymoseptoria tritici, 168 h, read-out: Observed efficacy) read?
A: The inhibition of growth at 0.25 ppm was 26%.

Q: Which Observed efficacy (Septoria tritici; [8]) does the source give for `Cn1cc(C(=O)Nc2ccccc2-c2cc(F)c(F)c(F)c2)c(C(F)F)n1` [Fluxapyroxad, fluxapyroxad, reference compound] here?
A: The Observed efficacy was 37%.

Q: With `CC(C)NC(=O)N1CC(=O)N(c2cc(Cl)cc(Cl)c2)C1=O` [Iprodion, iprodione, reference compound] as the compound, how does the inhibition of growth at 1 ppm (Pyricularia oryzae; [5]) read?
A: The inhibition of growth at 1 ppm was 60%.

Q: What about the inhibition of growth at 1 ppm (Botrytis cinerea; [7]) of the same compound?
A: Its inhibition of growth at 1 ppm is 60%.

Q: With `Cc1cc(OC(C)C)ccc1C(=O)C(C)(C)NC(=O)c1sccc1C` [Isofetamid, isofetamid, reference compound] as the compound, how does the Observed efficacy (Septoria tritici; single active, 0.25 ppm, MTP, 405 nm, 7 days after inoculation) read?
A: Its Observed efficacy is 46%.

Q: How did the inhibition of growth at 4 ppm (Pyricularia oryzae; [5]) turn out when `CC(C)OC(=O)C(C(=O)OC(C)C)=C1SCCS1` [Isoprothiolan, isoprothiolane, reference compound] was run?
A: Its inhibition of growth at 4 ppm is 8%.

Q: What about the inhibition of growth at 4 ppm (Botrytis cinerea; Botrytis cinerea, 168 h, read-out: Observed efficacy) of the same compound?
A: Its inhibition of growth at 4 ppm is 8%.

Q: For `N#Cc1ccccc1NC(=O)c1snc(Cl)c1Cl` [Isotianil, isotianil, reference compound], which Observed efficacy (Pyricularia oryzae; 4 ppm) is on record?
A: Its Observed efficacy is 6%.

Q: And the Observed efficacy (Botrytis cinerea; single active, 4 ppm, MTP, 405 nm, 7 days after inoculation)?
A: Its Observed efficacy is 6%.

Q: `CC(O)(Cn1cncn1)c1ccc(Oc2ccc(Cl)cc2)cc1C(F)(F)F` (stereo not drawn) [Mefentrifluconazol, mefentrifluconazole, reference compound] was tested. Which Observed efficacy (Pyricularia oryzae; 0.063 ppm) did it give?
A: Its Observed efficacy is 49%.

Q: And the Observed efficacy (Botrytis cinerea; [8])?
A: The Observed efficacy was 49%.

Q: Which inhibition of growth at 0.25 ppm (Septoria tritici; [4]) does the source give for `OC(Cc1ccccc1Cl)(Cn1nc[nH]c1=S)C1(Cl)CC1` (stereo not drawn) [Prothioconazol, prothioconazole, reference compound] here?
A: The inhibition of growth at 0.25 ppm was 42%.

Q: And the inhibition of growth at 4 ppm (Pyricularia oryzae; [5])?
A: Its inhibition of growth at 4 ppm is 35%.

Q: And the inhibition of growth at 4 ppm (Botrytis cinerea; [9])?
A: The inhibition of growth at 4 ppm was 35%.

Q: Which results are given for `COC(=O)NC(=S)Nc1ccccc1NC(=S)NC(=O)OC` [Thiophanate methyl, thiophanate-methyl, reference compound]?
A: inhibition of growth at 1 ppm (Septoria tritici; [1]): 10%; inhibition of growth at 1 ppm (Pyricularia oryzae; [5]): 9%; inhibition of growth at 1 ppm (Botrytis cinerea; [7]): 9%

Q: How did the inhibition of growth at 4 ppm (Septoria tritici; Zymoseptoria tritici, 168 h, single active, 4 ppm, MTP, 405 nm, 7 days after inoculation, read-out: Observed efficacy) turn out when `Cc1ccc(NC(=O)c2snnc2C)cc1Cl` [Tiadinil, tiadinil, reference compound] was run?
A: Its inhibition of growth at 4 ppm is 24%.

Q: `Cc1cccc2sc3nncn3c12` [Tricyclazol, tricyclazole, reference compound] was tested. Which inhibition of growth at 1 ppm (Septoria tritici; [1]) did it give?
A: Its inhibition of growth at 1 ppm is 14%.

Q: And the inhibition of growth at 4 ppm (Pyricularia oryzae; [5])?
A: Its inhibition of growth at 4 ppm is 14%.

Q: What about the inhibition of growth at 4 ppm (Botrytis cinerea; [9]) of the same compound?
A: The inhibition of growth at 4 ppm was 14%.
